According to patent US5834487A, “Inhibition of 26S and 20S proteasome by indanones” (CV Therapeutics, priority 1996, dated 1998):

Target: T1, 20S catalytic subunit of the proteasome (multicatalytic proteinase complex) (Bos taurus, UniProt Q32KL2)
T1 construct: was purified to homogeneity from bovine brain according to published methods; from tissue; host or cells: bovine brain
Assay: 20S proteasome chymotryptic activity, fluorogenic peptide cleavage
Assay type: biochemical, bovine
Details: 50 μM succinyl-leu-leu-val-tyr-7-amino-4-methyl coumarin, 15 minutes at 37° C, pH7.5
Description: Compounds of this invention prepared according to the method of Example 1 were tested as follows. The 20S catalytic subunit of the proteasome (also known as the multicatalytic proteinase complex) was purified to homogeneity from bovine brain according to published methods (Wilk S. and Orlowski, M, 40 842 J. Neurochem (1983)). The chymotryptic activity of the complex is measured by the increase in fluorescence following cleavage of the substrate peptide succinyl-leucine-leucine-valine-tyrosine-7-amino-4-methyl coumarin. The standard in vitro assay consists of 2 μg 20S proteasome, 0.1-100 μg/ml proteasome inhibitor in 200 μl 50 mM HEPES, containing 0.1% sodium dodecyl sulphate, pH7.5. The proteolytic reaction is initiated by the addition of 50 μM fluorogenic peptide substrate and allowed to progress for 15 minutes at 37° C. The reaction is terminated by the addition of 100 μl of 100 mM acetate buffer, pH4.0. The rate of proteolysis is directly proportional to the amount of liberated aminomethylcoumarin which is measured by fluorescent spectroscopy (EX 370 nm, EM 430 nm).

`COc1ccc2c(c1)C(CC(=O)NC(CC(C)C)C(N)=O)CC2=O` (mixture of isomers) [Compound 1] showed an IC50 of 5 µg/mL.

`COc1ccc2c(c1)C(CC(=O)NC(CC(C)C)C(=O)NC(CC(C)C)C(N)=O)CC2=O` (mixture of isomers) [Compound 2] gave an IC50 of 1 µg/mL.

`COc1ccc2c(c1)C(CC(=O)NC(CC(C)C)C(N)=O)CC2=O` (mixture of isomers) [Compound 3] was tested, and the IC50 was > 10 µg/mL.

With `COc1ccc2c(c1)C(CC(=O)NC(CC(C)C)C(=O)NC(Cc1c[nH]cn1)C(N)=O)CC2=O` (mixture of isomers) [Compound 4] the IC50 was > 10 µg/mL.

For `COc1ccc2c(c1)C(CC(=O)NC(CC(C)C)C(=O)NC(CC(C)C)C(N)=O)CC2=O` (mixture of isomers) [Compound 5], the IC50 was > 10 µg/mL.

With `COc1ccc2c(c1)C(CC(=O)NC(CC(C)C)C(=O)NC(CC(C)C)C(N)=O)CC2=O` (mixture of isomers) [Compound 6] the IC50 was > 10 µg/mL.

With `COc1ccc2c(c1)C(CC(=O)NC(CC(C)C)C(=O)NC(CC(C)C)C(N)=O)CC2=O` (mixture of isomers) [Compound 7] the IC50 was > 10 µg/mL.

For `CCCCC(NC(=O)CC1CC(=O)c2ccc(OC)cc21)C(N)=O` (mixture of isomers) [Compound 8], the IC50 was > 10 µg/mL.

`CCCCC(NC(=O)CC1CC(=O)c2ccc(OC)cc21)C(N)=O` (mixture of isomers) [Compound 9] was tested, and the IC50 was > 10 µg/mL.

In the case of `CCCC(NC(=O)CC1CC(=O)c2ccc(OC)cc21)C(N)=O` (mixture of isomers) [Compound 10], the IC50 is reported as > 10 µg/mL.

In the case of `COc1ccc2c(c1)C(CC(=O)NC(CC(C)C)C(=O)NC(C)(C)C(N)=O)CC2=O` (mixture of isomers) [Compound 11], the IC50 is reported as > 10 µg/mL.

For `COc1ccc2c(c1)C(CC(=O)NC(Cc1ccccc1)C(N)=O)CC2=O` (mixture of isomers) [Compound 12], the IC50 was > 10 µg/mL.

In the case of `COc1ccc2c(c1)C(CC(=O)NC(CC1CCCCC1)C(=O)NC(CC(C)C)C(N)=O)CC2=O` (mixture of isomers) [Compound 13], the IC50 is reported as > 10 µg/mL.

With `COc1ccc2c(c1)C(CC(=O)NC(Cc1ccccc1)C(=O)NC(CC(C)C)C(N)=O)CC2=O` (mixture of isomers) [Compound 14] the IC50 was > 10 µg/mL.

In the case of `CCCCC(NC(=O)CC1CC(=O)c2ccc(OC)cc21)C(=O)NC(CC(C)C)C(N)=O` (mixture of isomers) [Compound 15], the IC50 is reported as > 10 µg/mL.

For `CCCCC(NC(=O)CC1CC(=O)c2ccc(OC)cc21)C(=O)NC(CC(C)C)C(N)=O` (mixture of isomers) [Compound 16], the IC50 was > 10 µg/mL.

With `COc1ccc2c(c1)C(CC(=O)NC(CC(C)C)C(=O)NC(CC(C)C)C(=O)NCC(N)=O)CC2=O` (mixture of isomers) [Compound 17] the IC50 was > 10 µg/mL.

For `COc1ccc2c(c1)C(CC(=O)NC(CC(C)C)C(=O)NC(CC(C)C)C(=O)NCC(N)=O)CC2=O` (mixture of isomers) [Compound 18], the IC50 was 5 µg/mL.

`COc1ccc2c(c1)C(CC(=O)NC(CC(C)C)C(=O)NC(CC(C)C)C(=O)NCC(N)=O)CC2=O` (mixture of isomers) [Compound 19] was tested, and the IC50 was > 10 µg/mL.

Compound `COc1ccc2c(c1)C(CC(=O)NC(CC(C)C)C(=O)NC(CC(C)C)C(=O)NCC(N)=O)CC2=O` (mixture of isomers) [Compound 21] has an IC50 of 0.1 µg/mL.

With `CCCCC(NC(=O)CC1CC(=O)c2ccc(OC)cc21)C(=O)NC(CC(C)C)C(N)=O` (mixture of isomers) [Compound 22] the IC50 was > 10 µg/mL.

For `CCCCC(NC(=O)CC1CC(=O)c2ccc(OC)cc21)C(=O)NC(CC(C)C)C(N)=O` (mixture of isomers) [Compound 23], the IC50 was > 10 µg/mL.

With `COc1ccc2c(c1)C(CC(=O)NC(Cc1ccccc1)C(N)=O)CC2=O` (mixture of isomers) [Compound 24] the IC50 was > 10 µg/mL.

In the case of `COc1ccc2c(c1)C(CC(=O)N1Cc3ccccc3CC1C(N)=O)CC2=O` (mixture of isomers) [Compound 25], the IC50 is reported as > 10 µg/mL.

With `COc1ccc2c(c1)C(CC(=O)N1Cc3ccccc3CC1C(=O)NC(CC(C)C)C(N)=O)CC2=O` (mixture of isomers) [Compound 26] the IC50 was > 10 µg/mL.

For `COc1ccc2c(c1)C(CC(=O)NC(Cc1ccccc1)C(=O)NC(CC(C)C)C(N)=O)CC2=O` (mixture of isomers) [Compound 27], the IC50 was 10 µg/mL.

For `COc1ccc2c(c1)C(CC(=O)NC(CC(C)C)C(=O)NC(C)(C)C(N)=O)CC2=O` (mixture of isomers) [Compound 28], the IC50 was > 10 µg/mL.

In the case of `COc1ccc2c(c1)C(CC(=O)NC(CC1CCCCC1)C(N)=O)CC2=O` (mixture of isomers) [Compound 29], the IC50 is reported as > 10 µg/mL.

In the case of `COc1ccc2c(c1)C(CC(=O)NC(C(=O)NC(CC(C)C)C(N)=O)C(C)C)CC2=O` (mixture of isomers) [Compound 30], the IC50 is reported as > 10 µg/mL.

For `COc1ccc2c(c1)C(CC(=O)N1CCCC1C(=O)NC(CC(C)C)C(N)=O)CC2=O` (mixture of isomers) [Compound 31], the IC50 was 10 µg/mL.

`COc1ccc2c(c1)C(CC(=O)NC(CC(C)C)C(=O)NC(C(N)=O)C(C)C)CC2=O` (mixture of isomers) [Compound 33] was tested, and the IC50 was > 10 µg/mL.

In the case of `COc1ccc2c(c1)C(CC(=O)NC(C(=O)NC(C(N)=O)C(C)C)C(C)C)CC2=O` (mixture of isomers) [Compound 34], the IC50 is reported as > 10 µg/mL.

With `COc1ccc2c(c1)C(CC(=O)NC(CC1CCCCC1)C(=O)NC(CC1CCCCC1)C(N)=O)CC2=O` (mixture of isomers) [Compound 35] the IC50 was > 10 µg/mL.

For `COc1ccc2c(c1)C(CC(=O)NC(C(N)=O)c1ccccc1)CC2=O` (mixture of isomers) [Compound 36], the IC50 was > 10 µg/mL.

For `COc1ccc2c(c1)C(CC(=O)NC(C(=O)NC(CC(C)C)C(N)=O)c1ccccc1)CC2=O` (mixture of isomers) [Compound 37], the IC50 was > 10 µg/mL.

`COc1ccc2c(c1)C(CC(=O)NC(CC(C)C)C(=O)NCC(=O)NCC(N)=O)CC2=O` (mixture of isomers) [Compound 41] was tested, and the IC50 was > 10 µg/mL.

With `COc1ccc2c(c1)C(CC(=O)NCC(=O)NC(CC(C)C)C(=O)NCC(N)=O)CC2=O` (mixture of isomers) [Compound 42] the IC50 was > 10 µg/mL.

`CCCCC(NC(=O)CC1CC(=O)c2ccc(OC)cc21)C(=O)NC(CC(C)C)C(=O)NCC(N)=O` (mixture of isomers) [Compound 43] was tested, and the IC50 was > 10 µg/mL.

With `CCCC(NC(=O)CC1CC(=O)c2ccc(OC)cc21)C(=O)NC(CC(C)C)C(=O)NCC(N)=O` (mixture of isomers) [Compound 44] the IC50 was > 10 µg/mL.

In the case of `COc1ccc2c(c1)C(CC(=O)NC(Cc1ccccc1)C(=O)NC(CC(C)C)C(=O)NCC(N)=O)CC2=O` (mixture of isomers) [Compound 45], the IC50 is reported as > 10 µg/mL.

With `COc1ccc2c(c1)C(CC(=O)NC(CC1CCCCC1)C(=O)NC(CC(C)C)C(=O)NCC(N)=O)CC2=O` (mixture of isomers) [Compound 46] the IC50 was > 10 µg/mL.

In the case of `COc1ccc2c(c1)C(CC(=O)NC(C(=O)NC(CC(C)C)C(=O)NCC(N)=O)C(C)C)CC2=O` (mixture of isomers) [Compound 47], the IC50 is reported as > 10 µg/mL.

`COc1ccc2c(c1)C(CC(=O)NC(C(=O)NC(CC(C)C)C(=O)NCC(N)=O)c1ccccc1)CC2=O` (mixture of isomers) [Compound 48] was tested, and the IC50 was > 10 µg/mL.

With `COc1ccc2c(c1)C(CC(=O)N1CCCC1C(=O)NC(CC(C)C)C(=O)NCC(N)=O)CC2=O` (mixture of isomers) [Compound 49] the IC50 was > 10 µg/mL.

`COc1ccc2c(c1)C(CC(=O)NC(CC(C)C)C(=O)NC(C)C(N)=O)CC2=O` (mixture of isomers) [Compound 52] was tested, and the IC50 was > 10 µg/mL.

With `COc1ccc2c(c1)C(CC(=O)NC(CC(C)C)C(=O)NC(C)C(N)=O)CC2=O` (mixture of isomers) [Compound 53] the IC50 was > 10 µg/mL.

`COc1ccc2c(c1)C(CC(=O)NC(CC(C)C)C(=O)N1CCCC1C(N)=O)CC2=O` (mixture of isomers) [Compound 54] was tested, and the IC50 was > 10 µg/mL.

`COc1ccc2c(c1)C(CC(=O)N1CCCC1C(N)=O)CC2=O` (mixture of isomers) [Compound 55] was tested, and the IC50 was > 10 µg/mL.

With `COc1ccc2c(c1)C(CC(=O)NC(CC(C)C)C(=O)NC(Cc1ccccc1)C(N)=O)CC2=O` (mixture of isomers) [Compound 56] the IC50 was > 10 µg/mL.

With `CCCC(NC(=O)CC1CC(=O)c2ccc(OC)cc21)C(=O)NC(CC(C)C)C(N)=O` (mixture of isomers) [Compound 57] the IC50 was > 10 µg/mL.

For `CCCC(NC(=O)CC1CC(=O)c2ccc(OC)cc21)C(=O)NC(CC(C)C)C(N)=O` (mixture of isomers) [Compound 58], the IC50 was > 10 µg/mL.

For `COc1ccc2c(c1)C(CC(=O)NC(C)C(=O)NC(CC(C)C)C(N)=O)CC2=O` (mixture of isomers) [Compound 59], the IC50 was > 10 µg/mL.

For `COc1ccc2c(c1)C(CC(=O)N1Cc3ccccc3CC1C(=O)NC(CC(C)C)C(N)=O)CC2=O` (mixture of isomers) [Compound 60], the IC50 was > 10 µg/mL.

In the case of `COc1ccc2c(c1)C(CC(=O)NC(CO)C(=O)NC(CC(C)C)C(N)=O)CC2=O` (mixture of isomers) [Compound 61], the IC50 is reported as > 10 µg/mL.

For `COc1ccc2c(c1)C(CC(=O)NC(CC(C)C)C(=O)N1CCCC1C(=O)NCC(N)=O)CC2=O` (mixture of isomers) [Compound 92], the IC50 was > 10 µg/mL.
